Data reported in US3984543A, “Therapeutic methods employing cyclic aminophosphonic acids” (Henkel & Cie G.m.b.H., priority 1973, dated 1976).

Key:
[1] = Calcium phosphate dissolution in vitro (CaHPO4 test); type: physicochemical; conditions: for Consumption Sequestering Agent Solution: 10 mg/ml solution, pH 7.4, clear solution after 1 hour; for mg CaHPO4 dissolved / gm Sequestering Agent: pH 7.4, 1 hour
Procedure: Essential tests for the effectiveness of the compounds in physiological systems are in vitro tests for the dissolving of freshly precipitated CaHPO4, as well as preventing the precipitation of NH4 MgPO4 at a pH of 7.4. The "CaHPO4 test" was carried out as follows.
By combining 25 ml of a phosphate solution (1.38 gm of NaH2 PO4.H2 O/liter, standardized to a pH of 7.4) and 25 ml of a calcium solution (1.45 gm of CaCl2.2H2 O/liter, standardized to a pH of 7.4), a precipitate of CaHPO4 was produced. Thereafter, so much of a solution of the sequestering agent (at a concentration of 10 mg/ml) was added from a burette that a clear solution was obtained after standing for 1 hour.

[2] = Sequestration of calcium (modified Hampshire test); type: physicochemical; conditions: pH 11; for Consumption of Sequestering Agent Solution: 1 gm sequestering agent in 50 ml H2O, until CaCO3 precipitate redissolved
Procedure: In the investigation of the sequestration of calcium, a modified Hampshire test was employed and worked as follows:
1 gm of the sequestering agent was dissolved in 50 ml of H2 O, adjusted with NaOH to a pH of 11. 50 ml of a Ca^+^+ solution (1470 mg of CaCl2.2H2 0/1) were mixed with 100 ml of a sodium carbonate solution (7.15 gm NaCO3.10H2 O/l.). Then the solution of the sequestering agent was added in drops from a burette until the calcium carbonate precipitate was redissolved. The values formed have been reported in Table I. For the sake of simplicity, only the value for n and the various substituents for R according to Formula I are indicated in the left column of the Table.

[3] = Threshold effect: prevention of precipitation of poorly soluble calcium compounds by substoichiometric amounts; type: physicochemical; conditions: 30 minutes
Procedure: The prevention of the precipitation of poorly soluble calcium compounds by substoichiometric amounts of a sequestering agent was determined at 60° and 95° C as follows:
25 ml of 80° dH (German hardness) water (corresponding to 800 mg CaO/l.) were mixed with a 10 ml of a solution of the sequestering agent (concentration: 300 mg/l.). After dilution with distilled water to 70 ml, 25 ml of a sodium carbonate solution containing 4 gm/l. were added and the solution was brought to 100 ml. After heating for 30 minutes at the indicated temperature, any precipitate formed was separated. The sequestering agent was removed from a measured amount of the clear filtrate by means of an anion exchange resin. Then the content of the dissolved calcium in this sample was determined by complexometry (according to Scharzenbach).

[4] = Inhibition of precipitation of NH4 MgPO4 in vitro; type: physicochemical; conditions: pH 7.4, 72 hours
Procedure: Since the precipitation of NH4 MgPO4 is occasionally the cause of the formation of urinary calculus, the inhibition of the precipitation of NH4 MgPO4 was also tested in aqueous solutions at pH 7.4. The test was carried out as follows.
A fixed amount of the phosphonic acid was weighed into a beaker and dissolved with 25 ml of a phosphate solution (13.799 gm of NaH2 PO4.H2 O/liter) as well as with 40 ml of distilled water, and standardized with NaOH to a pH of 7.4. After adding 25 ml of a Mg^+^+ and NH4 ^+ solution (20.333 gm of MgC12.6H2 O and 5.349 gm of NH4 Cl/liter, standardized to a pH of 7.4), the solution was brought up with distilled H2 O to 100 ml. Then the sample was covered and evaluated after 72 hours for amount and appearance of the precipitate. The explanation of the data in the left column is to be found in Example 8.

[5] = Apatite crystallization delay test in vitro; type: physicochemical; conditions: 2 mg, pH 7.4, 35°C
Procedure: Supersaturated solutions of Ca^+^+ and HPO4 ^-^- ions are relatively stable, but crystallize after the addition of an apatite nuclei according to the reaction
with the release of protons. The reaction can, therefore, be readily observed by titration with a base at a constant pH.
400 ml of 0.0008 molar KH2 PO4 solution were mixed with 45 ml of a 0.012 molar CaCl2 solution, and the clear solution was standardized with KOH to a pH of 7.4, after being brought to a temperature of 35°C. […] The crystallization set in immediately and was followed by "pH-Stat" titration with 0.05 N KOH.
If a small amount (2 mg) of one of the cyclic aminophosphonic acids of the invention was added to the solution before the apatite was added, the crystallization was greatly delayed.
For simplicity's sake, only the value for n and the various substituents for R according to Formula I in Example 8 are indicated in the left column of the Table.

[6] = Acute toxicity (LD50) in mice; conditions: mouse, in vivo
Description: The new phosphonic acids are characterized by a very low acute toxicity. The following LD50 values of Table IV were found in mice. For the explanation of the data in the left column of Table IV, see Example 8.

What does the source list for `NC1(P(=O)(O)O)CC(=O)NP1(=O)O` (stereo not shown) [n=1, R=H, 2-Hydroxy-2-oxo-3-amino-3-phosphonyl-5-oxo-1-aza-2-phospha-cyclopentane]?
Consumption Sequestering Agent Solution [1]: 8.0 mL; mg CaHPO4 dissolved / gm Sequestering Agent [1]: 420 mg CaHPO4 / gm Sequestering Ag; Consumption of Sequestering Agent Solution [2]: 2.6 mL; mg CaCO3 Sequestered per gm of Compound [2]: 1040 mg CaCO3 per gm of Compound; CaO in Solution ([3]; 60 °C): 76.1%; CaO precipitated ([3]; 60 °C): 23.9%; CaO in Solution ([3]; 95 °C): 87.7%; CaO precipitated ([3]; 95 °C): 12.3%

What does the source list for `CCNC1(P(=O)(O)O)CCC(=O)N(CC)P1(=O)O` (stereo not shown) [n=2, R=C2 H5, 1-Ethyl-2-hydroxy-2-oxo-3-ethylamino-3-phosphonyl-6-oxo-1-aza-2-phospha-cyclohexane]?
Consumption of Sequestering Agent Solution [2]: 2.25 mL; mg CaCO3 Sequestered per gm of Compound [2]: 1110 mg CaCO3 per gm of Compound

For `CNC1(P(=O)(O)O)CCC(=O)N(C)P1(=O)O` (stereo not shown) [n=2, R=CH3, 1-Methyl-2-hydroxy-2-oxo-3-methylamino-3-phosphonyl-6-oxo-1-aza-2-phospha-cyclohexane], which “Consumption Sequestering Agent Solution” value [1] is on record?
Its value is 4.0 mL.

And the “mg CaHPO4 dissolved / gm Sequestering Agent” value [1]?
Its value is 850 mg CaHPO4 / gm Sequestering Ag.

And the “Consumption of Sequestering Agent Solution” value [2]?
Its value is 3.0 mL.

What about the “mg CaCO3 Sequestered per gm of Compound” value [2] of the same compound?
The value was 840 mg CaCO3 per gm of Compound.

What about the “Precipitation after 72 hours: NH4 MgPO4 crystals” value ([4]; 145 mg) of the same compound?
Its value is “Very few NH4 MgPO4 crystals”.

What about the “Precipitation after 72 hours: cloudiness” value ([4]; 145 mg) of the same compound?
The value was “no cloudiness”.

What about the “Precipitation after 72 hours: NH4 MgPO4 crystals” value ([4]; 217.5 mg) of the same compound?
Its value is “No NH4 MgPO4 crystals”.

What about the “Precipitation after 72 hours: cloudiness” value ([4]; 217.5 mg) of the same compound?
Its value is “no”.

And the “Delay of crystallization in % after 4 Hours” value [5]?
Its value is 84%.

And the “Delay of crystallization in % after 8 Hours” value [5]?
The value was 76%.

With `NC1(P(=O)(O)O)CCC(=O)NP1(=O)O` (stereo not shown) [n=2, R=H, 2-Hydroxy-2-oxo-3-amino-3-phosphonyl-6-oxo-1-aza-2-phospha-cyclohexane] as the compound, how does the “Consumption Sequestering Agent Solution” value [1] read?
The value was 6.0 mL.

What about the “mg CaHPO4 dissolved / gm Sequestering Agent” value [1] of the same compound?
The value was 570 mg CaHPO4 / gm Sequestering Ag.

And the LD50 [6]?
The LD50 was 3200 mg/kg.

And the “Consumption of Sequestering Agent Solution” value [2]?
The value was 2.6 mL.

What about the “mg CaCO3 Sequestered per gm of Compound” value [2] of the same compound?
Its value is 1040 mg CaCO3 per gm of Compound.

What about the “CaO in Solution” value ([3]; 60 °C) of the same compound?
Its value is 99.6%.

And the CaO precipitated ([3]; 60 °C)?
Its CaO precipitated is 0.4%.

What about the “CaO in Solution” value ([3]; 95 °C) of the same compound?
The value was 99.5%.

And the CaO precipitated ([3]; 95 °C)?
Its CaO precipitated is 0.5%.

What about the “Precipitation after 72 hours: NH4 MgPO4 crystals” value ([4]; 61 mg) of the same compound?
The value was “Few NH4 MgPO4 crystals”.

What about the “Precipitation after 72 hours: cloudiness” value ([4]; 61 mg) of the same compound?
Its value is “some”.

What about the “Precipitation after 72 hours: NH4 MgPO4 crystals” value ([4]; 122 mg) of the same compound?
The value was “No NH4 MgPO4 crystals”.

What about the “Precipitation after 72 hours: cloudiness” value ([4]; 122 mg) of the same compound?
Its value is “great”.

For `CNC1(P(=O)(O)O)CCCC(=O)N(C)P1(=O)O` (stereo not shown) [n=3, R=CH3, 1-Methyl-2-hydroxy-2-oxo-3-methylamino-3-phosphonyl-7-oxo-1-aza-2-phospha-cycloheptane], which “Consumption Sequestering Agent Solution” value [1] is on record?
The value was 5.0 mL.

What about the “mg CaHPO4 dissolved / gm Sequestering Agent” value [1] of the same compound?
Its value is 680 mg CaHPO4 / gm Sequestering Ag.

What about the “Consumption of Sequestering Agent Solution” value [2] of the same compound?
The value was 3.8 mL.

And the “mg CaCO3 Sequestered per gm of Compound” value [2]?
Its value is 660 mg CaCO3 per gm of Compound.

And the “Precipitation after 72 hours: NH4 MgPO4 crystals” value ([4]; 72 mg)?
The value was “Few NH4 MgPO4 crystals”.

And the “Precipitation after 72 hours: NH4 MgPO4 crystals” value ([4]; 144 mg)?
The value was “No NH4 MgPO4 crystals”.

Which “Consumption Sequestering Agent Solution” value [1] does the source give for `NC1(P(=O)(O)O)CCCC(=O)NP1(=O)O` (stereo not shown) [n=3, R=H, 2-Hydroxy-2-oxo-3-amino-3-phosphonyl-7-oxo-1-aza-2-phospha-cycloheptane] here?
The value was 2.5 mL.

What about the “mg CaHPO4 dissolved / gm Sequestering Agent” value [1] of the same compound?
The value was 1350 mg CaHPO4 / gm Sequestering Ag.

And the LD50 [6]?
The LD50 was 10000 mg/kg.

And the “Consumption of Sequestering Agent Solution” value [2]?
Its value is 3.1 mL.

What about the “mg CaCO3 Sequestered per gm of Compound” value [2] of the same compound?
Its value is 810 mg CaCO3 per gm of Compound.

And the “CaO in Solution” value ([3]; 60 °C)?
Its value is 99.6%.

What about the CaO precipitated ([3]; 60 °C) of the same compound?
The CaO precipitated was 0.4%.

What about the “CaO in Solution” value ([3]; 95 °C) of the same compound?
Its value is 99.5%.

And the CaO precipitated ([3]; 95 °C)?
Its CaO precipitated is 0.5%.

And the “Precipitation after 72 hours: NH4 MgPO4 crystals” value ([4]; 68.5 mg)?
The value was “Fewer NH4 MgPO4 crystals”.

What about the “Precipitation after 72 hours: cloudiness” value ([4]; 68.5 mg) of the same compound?
The value was “great cloudiness”.

And the “Delay of crystallization in % after 4 Hours” value [5]?
The value was 96%.

What about the “Delay of crystallization in % after 8 Hours” value [5] of the same compound?
The value was 96%.
